Experimental data reported in patent US7745574B2, “Compounds that regulate apoptosis” (The Burnham Institute, priority 2005, dated 2010).
Where a SMILES comes first, the peptide text is derived from it. Bridges are numbered along the chain shown (N, C = ends). [ ]: non-standard residue; d: D form. The star is where a group is joined. FITC = O=C1OC2(c3ccc(O)cc3Oc3cc(O)ccc32)c2ccc(NC(=S)*)cc21; Ahx = NCCCCCC(=O)O

How the values were obtained:
Jurkat or CEM cells = assay: Apoptosis in Jurkat or CEM cells stably expressing Bcl-2; format: cell-based
Procedure: Cell culture. H460 lung cancer cells were maintained in RPMI 1640 medium supplemented with 10% fetal bovine serum (FBS). HEK293T embryonic kidney cells were grown in DME medium supplemented with 10% FBS. Jurkat and Jurkat cells stably expressing Bcl-2 were kindly provided by Dr. John Reed, and they were maintained in RPMI1640 medium.

GST-Bcl-2 [1] = biological target: T1, GST-Bcl-2 (Homo sapiens, UniProt P10415); assay: Fluorescence polarization (FP) assay, GST-Bcl-2; format: binding
T1 construct: made in house
T1 sequence (P10415 whole entry): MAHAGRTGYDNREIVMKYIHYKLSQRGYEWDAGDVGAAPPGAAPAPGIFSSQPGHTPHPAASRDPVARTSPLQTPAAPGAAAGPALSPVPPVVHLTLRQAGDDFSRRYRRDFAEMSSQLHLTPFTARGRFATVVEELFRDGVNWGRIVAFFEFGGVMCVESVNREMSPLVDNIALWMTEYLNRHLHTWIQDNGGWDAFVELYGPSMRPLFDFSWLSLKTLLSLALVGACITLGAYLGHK
Procedure: (§1) Fluorescence polarization (FP) assays. GST-Bcl-2, GST-Bcl-XL, or GST protein was briefly incubated with FITC-conjugated peptide with or without competitors in Greiner Fluotrac 600 96-well microplates. Fluorescence polarization was recorded using an Analyst HT 96-384 microplate reader (Molecular Devices, Sunnyvale, Calif.) with excitation wavelength set at 485 nm and dynamic polarizer for emission at 530 nm.

H460 lung cancer cells = assay: Apoptosis in H460 lung cancer cells; format: cell-based
[2] = test system: ZR-75-1 breast cancer cells; assay: Apoptosis in ZR-75-1 breast cancer cells; format: cell-based; details: <10 μM peptide
Procedure: (§2) Apoptosis assays—For nuclear morphological change analysis, cells were trypsinized, washed with PBS, fixed with 3.7% paraformaldehyde, and stained with DAPI (4,6-diamidino-2-phenylindole) (50 μg/ml) to visualize the nuclei by UV-microscopy. The percentages of apoptotic cells were determined by counting 300 GFP-positive cells, scoring cells having nuclear fragmentation and/or chromatin condensation.

[3] = test system: various cancer cell lines; assay: Apoptosis in various cancer cell lines; format: cell-based
Procedure: as §2

[4] = test system: normal primary mammary epithelial cells; assay: Apoptosis in normal primary mammary epithelial cells; format: cell-based
Procedure: as §2

Bcl-2 [5] = biological target: T2, Bcl-2 (Homo sapiens, UniProt P10415); assay: Co-immunoprecipitation with Bcl-2 in HEK293T cells; format: binding; design: expressed in transfected cells; host or cells: HEK293T
Procedure: Nur77 peptide binds anti-apoptotic Bcl-2 family members. Nur77-peptide binds Bcl-B, Bfl-1, and Bcl-2, but not Mcl-1 and Bcl-xL. […] The expression vector for the GFP-Nur77/489-497 fusion was transfected into HEK293T cells together with or without the indicated expression vector for myc-tagged Bcl-2 family member. Cell lysates were prepared and analyzed for interaction of Nur77/489-497 with Bcl-2 family members by co-immunoprecipitation assay using anti-Myc antibody. Immunoprecipitates were then separated on SDS/PAGE and immunoblotted using anti-GFP antibody. […] Nur77/Bcl-2 interaction assays—Reporter gene assays using NurRE-tk-CAT in CV-1 cells, and GST pull-down assay were described previously (Li, et al. 2000 Science 289:1159-1164). For the mammalian two-hybrid assays, CV-1 cells were co-transfected with pcDNA-Gal4TAD-Nur77 or pcDNA-Gal4TAD-Nur77/ΔDBD and pcDNA-Gal4 DBD-Bcl-2/ΔTM along with a luciferase reporter gene driven by four copies of the Gal-4-binding site. The cells were harvested and reporter gene activity was measured. For Co-IP assays, HEK293T cells were transiently transfected with various expression plasmids using a modified calcium phosphate precipitation method (Wu et al, 1997) in the presence of caspase inhibitors (zVAD-fmk) to prevent degradation of Nur77 protein due to apoptosis. Cells were suspended in lysis buffer (50 mM Tris-HCl, PH7.4; 150 mM NaCl; 20 mM EDTA; 1% NP-40; 1 mM PMSF; 50 μg/ml Leupeptin; […]; 0.1 mM Na3VO4; and 1 mM DTT). Cells extracts were cleared by incubation with the Protein A/G plus Agarose beads (Santa Cruz) and then incubated with appropriate antibody and 30 μl of Protein A or G plus Agarose beads overnight at 4° C. […] Immunoreactive products were detected by chemiluminescence with an enhanced chemiluminescence system (ECL) (Amersham).
Target sequence in this assay (P10415 whole entry, the tested form may be a part): as the sequence (P10415 whole entry) above

Bcl-2 [6] = biological target: T2, Bcl-2; assay: Immunoprecipitation of endogenous Bcl-2 by anti-Bcl-2/BH3 antibody in treated cells; format: cell-based; design: precipitated endogenous Bcl-2 in cells treated with L-NuBCP-9-r8 or D-NuBCP-9-r8; endogenous in cells
Target sequence in this assay (P10415 whole entry, species assumed, the tested form may be a part): as the sequence (P10415 whole entry) above

Bcl-2 [7] = biological target: T2, Bcl-2; assay: Bcl-2 conformational change, anti-Bcl-2/BH3 antibody staining of HEK293T cells transfected with Bcl-2; format: cell-based; design: expressed in transfected cells; host or cells: HEK293T; details: flow cytometry
Procedure: Such a Bcl-2 conformation is recognized by an anti-Bcl-2 antibody raised against the Bcl-2 BH3 domain. To determine whether NuBCP-9 induced a Bcl-2 conformational change, flow cytometric assays were conducted which HEK293T cells transfected with Bcl-2 were exposed to NuBCPs and subsequently stained with the anti-Bcl-2/BH3 antibody.
Target sequence in this assay (P10415 whole entry, the tested form may be a part): as the sequence (P10415 whole entry) above

GST [8] = biological target: T3, GST (Schistosoma japonicum, UniProt P08515); assay: Circular dichroism (CD) spectroscopy, GST; format: binding
T3 sequence (P08515 whole entry): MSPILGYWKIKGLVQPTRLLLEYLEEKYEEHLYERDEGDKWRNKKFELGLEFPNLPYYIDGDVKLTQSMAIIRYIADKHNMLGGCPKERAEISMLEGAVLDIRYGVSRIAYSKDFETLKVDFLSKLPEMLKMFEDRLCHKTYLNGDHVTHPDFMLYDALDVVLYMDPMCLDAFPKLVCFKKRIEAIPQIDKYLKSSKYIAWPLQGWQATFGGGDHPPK
Procedure: (§3) Circular dichroism (CD) spectroscopy. Stock solutions of 3 mM peptide in 30% acetonitrile/water were added to 0.5 mL of 2 μM purified GST-proteins in PBS, pH 7.6. CD spectra were obtained in a 0.2 cm pathlength cell at 20° C. using an AVIV 62 DS spectropolarimeter for a wavelength range from 200 to 260 nm with a step size of 1 nm averaged for 5 sec. Three spectra were corrected for background and averaged for each sample. The Kd was determined using nonlinear regression analysis for a one-site-binding model (χ2>0.98). Stoichiometry was determined from a […] (Jones, G. et al. 2002 Tet. Let. 43 :6079-6082).

GST-Bcl-2 [9] = biological target: T1, GST-Bcl-2; assay: Circular dichroism (CD) spectroscopy, GST-Bcl-2; format: binding
Procedure: as §3

Bcl-XL = Bcl-XL (Homo sapiens, UniProt Q07817); assay: Circular dichroism (CD) spectroscopy, Bcl-XL; format: binding
Chain of Bcl-XL (Q07817 whole entry, species assumed): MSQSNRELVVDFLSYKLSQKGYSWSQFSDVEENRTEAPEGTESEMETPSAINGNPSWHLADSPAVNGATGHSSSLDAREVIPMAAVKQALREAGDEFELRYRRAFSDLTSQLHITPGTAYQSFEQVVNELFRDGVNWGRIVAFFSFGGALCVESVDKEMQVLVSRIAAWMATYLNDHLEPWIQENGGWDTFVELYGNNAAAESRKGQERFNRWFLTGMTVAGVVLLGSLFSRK
Procedure: as §3

Bcl-2 [10] = biological target: T2, Bcl-2; assay: FP competition assay on Bcl-2; format: binding
Procedure: as §1
Target sequence in this assay (P10415 whole entry, the tested form may be a part): as the sequence (P10415 whole entry) above

GST [11] = biological target: T3, GST; assay: Fluorescence polarization (FP) assay, GST; format: binding
Procedure: as §1

GST-Bcl-XL = GST-Bcl-XL (Homo sapiens, UniProt Q07817); assay: Fluorescence polarization (FP) assay, GST-Bcl-XL; format: binding
Chain of GST-Bcl-XL (Q07817 whole entry, species assumed): as the sequence (Q07817 whole entry, species assumed) above
Procedure: as §1

Bcl-2 [12] = biological target: T2, Bcl-2; assay: Binding to Bcl-2, method not stated; design: precipitated endogenous Bcl-2 in cells treated with L-NuBCP-9-r8 or D-NuBCP-9-r8; endogenous in cells
Target sequence in this assay (P10415 whole entry, species assumed, the tested form may be a part): as the sequence (P10415 whole entry) above

Compound: CN[C@@H]1C[C@H]2O[C@@](C)([C@@H]1OC)n1c3ccccc3c3c4c(c5c6ccccc6n2c5c31)C(=O)NC4 [staurosporine]
- effect of stable expression of Bcl-2 on induced apoptosis/cell death (Jurkat or CEM cells): attenuated

Compound: FITC-NuBCP-9/AA-r8: FITC-conjugated NuBCP-9/AA-r8 peptide ({FITC}-ASRSLHSLAG[Ahx][dR][dR][dR][dR][dR][dR][dR][dR]-NH2)
- FP of FITC-peptide induced by GST-Bcl-2 (GST-Bcl-2 [1]): little affected

Compound: acetyl---GDWIDSILAFSRSLHSLLVDKKC-X-rrrrrrrr (Ac-GDWIDSILAFSRSLHSLLVDKKC[Ahx][dR][dR][dR][dR][dR][dR][dR][dR]-NH2; also: Cys thiol joined to chloroacetyl-Ahx by thioether) [NuBCP-20-r8]
- apoptotic potency compared with BH3 peptides derived from t-Bid (H460 lung cancer cells): more potent
- apoptosis [2]: > 80%
- apoptotic effects [3]: potent apoptotic effects
- apoptosis [4]: resistant
- interaction with Bcl-2 by co-immunoprecipitation (Bcl-2 [5]): binding

Compound: t-Bid BH3 peptide-r8: BH3 peptide derived from pro-apoptotic Bcl-2 family member t-Bid, conjugated with r8 (Ac-EDIIRNIARHLAQVGDSMDRC[Ahx][dR][dR][dR][dR][dR][dR][dR][dR]-NH2; also: Cys thiol joined to chloroacetyl-Ahx by thioether) [reference compound]
- precipitation of endogenous Bcl-2 by anti-Bcl-2/BH3 antibody (Bcl-2 [6]): not
- Bcl-2 immunofluorescence by anti-Bcl-2/BH3 antibody (Bcl-2 [7]): did not show any Bcl-2 immunofluorescence

Compound: NuBCP-9/AA: unconjugated NuBCP-9 with Ala substituted for the terminal amino acids (Ac-ASRSLHSLAG[Ahx][dR][dR][dR][dR][dR][dR][dR][dR]-NH2; SMILES CC(=O)N[C@@H](C)C(=O)N[C@@H](CO)C(=O)N[C@@H](CCCNC(=N)N)C(=O)N[C@@H](CO)C(=O)N[C@@H](CC(C)C)C(=O)N[C@@H](Cc1c[nH]cn1)C(=O)N[C@@H](CO)C(=O)N[C@@H](CC(C)C)C(=O)N[C@@H](C)C(=O)NCC(=O)NCCCCCC(=O)N[C@H](CCCNC(=N)N)C(=O)N[C@H](CCCNC(=N)N)C(=O)N[C@H](CCCNC(=N)N)C(=O)N[C@H](CCCNC(=N)N)C(=O)N[C@H](CCCNC(=N)N)C(=O)N[C@H](CCCNC(=N)N)C(=O)N[C@H](CCCNC(=N)N)C(=O)N[C@H](CCCNC(=N)N)C(N)=O)
- effect on CD spectra for GST (GST [8]): no effect
- changes in GST-Bcl-2 protein CD spectra (GST-Bcl-2 [9]; peptide 30 μM, GST-Bcl-2 2 μM): not
- effect on CD spectra for Bcl-XL (Bcl-XL): no effect
- competition for binding of FITC-L-NuBCP-9-r8 or FITC-D-NuBCP-9-r8 to Bcl-2 (Bcl-2 [10]): did not

Compound: FITC-NuBCP-9-r8: FITC-conjugated NuBCP-9-r8 peptide for FP assays ({FITC}-FSRSLHSLLG[Ahx][dR][dR][dR][dR][dR][dR][dR][dR]-NH2)
- FP of FITC-peptide induced by GST (GST [11]): not
- FP of FITC-peptide induced by GST-Bcl-XL (GST-Bcl-XL): not
- FP of FITC-peptide induced by GST-Bcl-2 (GST-Bcl-2 [1]): concentration-dependent FP

Compound: D-Bad BH3 peptide-CC-Ant: D-enantiomer of Bad BH3 peptide, disulfide-linked to Ant (Ac-NLWAAQRYGRELRRMADEFVDAFKKCCRQIKIWFQNRRMKWKK-NH2; disulfide 26-27; not fully specified (some residues); also: D-amino acids, extent within chain not given here) [reference compound]
- apoptotic effect (H460 lung cancer cells; H460 cells, peptides conjugated with CPP, 10 μM): not apoptotic
- binding to Bcl-2 (Bcl-2 [12]): did not bind

Compound: Bad BH3 peptide-CC-Ant: Bad BH3 peptide, Ser replaced with Ala, disulfide-linked to Ant (Ac-NLWAAQRYGRELRRMADEFVDAFKKCCRQIKIWFQNRRMKWKK-NH2; disulfide 26-27; also: Bad BH3 peptide and Ant are two peptides joined by C26-C27 disulfide, no peptide bond)
- effect of stable expression of Bcl-2 on induced apoptosis/cell death (Jurkat or CEM cells): attenuated

Compound: CC(=O)N[C@@H](Cc1ccccc1)C(=O)N[C@@H](CO)C(=O)N[C@@H](CCCNC(=N)N)C(=O)N[C@@H](CO)C(=O)N[C@@H](CC(C)C)C(=O)N[C@@H](Cc1c[nH]cn1)C(=O)N[C@@H](CO)C(=O)N[C@@H](CC(C)C)C(=O)N[C@@H](CC(C)C)C(N)=O [NuBCP-9, FSRSLHSLL] (Ac-FSRSLHSLL-NH2)
- effect on CD spectra for GST (GST [8]): no effect
- Kd (GST-Bcl-2 [9]): 2100 ± 200 nM
- effect on CD spectra for Bcl-XL (Bcl-XL): no effect
- competition for binding of FITC-L-NuBCP-9-r8 or FITC-D-NuBCP-9-r8 to Bcl-2 (Bcl-2 [10]): competed

Compound: CN(C)CC[C@H](CSc1ccccc1)Nc1ccc(S(=O)(=O)NC(=O)c2ccc(N3CCN(Cc4ccccc4-c4ccc(Cl)cc4)CC3)cc2)cc1[N+](=O)[O-] [ABT-737, reference compound]
- competition for binding of FITC-L-NuBCP-9-r8 or FITC-D-NuBCP-9-r8 to Bcl-2 (Bcl-2 [10]): failure
